For 25 molecules, class and IC50 results are on record in patent US20070010671A1, “Novel quinazoline derivatives and methods of treatment related to the use thereof” (priority 2003, published 2007).

pIC50: −log10 of the molar value.

For one experiment, the target named is MCH receptor (Homo sapiens, UniProt Q99705). Nature of the experiment: High throughput functional screening FLIPR/FDSS6000: inhibition of MCH-evoked intracellular Ca2+ changes. It is filed as cell-based. The note with it: class by percent of control at 10^-7 M or IC50. Summed up:
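In a kinetic calcium-flux format, compounds were tested at various concentrations against 50 nM MCH. Fluo4-loaded cells expressing a constitutively active, non-endogenous receptor were imaged at 488/530 nm for 290 s after agonist addition.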
Take `Cc1cc(C)c(NC(=S)NC[C@H]2CC[C@@H](Nc3nc(N(C)C)c4ccccc4n3)CC2)cc1C` [compound 717]: the class is 3 (Class 3: The value of percent of control at 10^−7 M was more than 60% or the value of IC50 was more than 200 nM.). Take `CCc1ccccc1NC(=S)NC[C@H]1CC[C@@H](Nc2nc(N(C)C)c3ccccc3n2)CC1` [compound 640, N-[(cis-4-{[4-(dimethylamino)quinazolin-2-yl]amino}cyclohexyl)methyl]-N′-(2-ethylphenyl)thiourea]: the class was 2 (Class 2: The value of percent of control at 10^−7 M was from 40% to 60% or the value of IC50 was from 50 nM to 200 nM.). On to `CCOC(=O)c1ccc(NC(=S)NC[C@H]2CC[C@@H](Nc3nc(N(C)C)c4ccccc4n3)CC2)cc1` [compound 696], for which the class is 3 (Class 3: The value of percent of control at 10^−7 M was more than 60% or the value of IC50 was more than 200 nM.). In the case of `CN(C)c1nc(N[C@H]2CC[C@@H](NC(=S)Nc3c(F)cc(Br)cc3Br)CC2)nc2ccccc12` [compound 360, N-(2,4-dibromo-6-fluorophenyl)-N′-(cis-4-{[4-(dimethylamino)quinazolin-2-yl]amino}cyclohexyl)thiourea], the class was 1 (Class 1: The value of percent of control at 10^−7 M was less than 40% or the value of IC50 was less than 50 nM.). Consider `CN(C)c1nc(N[C@H]2CC[C@@H](CNC(=O)Nc3ccc4c(c3)C(F)(F)OC(F)(F)O4)CC2)nc2ccccc12` [compound 755, N-[(cis-4-{[4-(dimethylamino)quinazolin-2-yl]amino}-cyclohexyl)methyl]-N′-(2,2,4,4,-tetrafluoro-4H-1,3-benzodioxin-6-yl)urea], for which the class is given as 3 (Class 3: The value of percent of control at 10^−7 M was more than 60% or the value of IC50 was more than 200 nM.). Take `CN(C)c1nc(N[C@H]2CC[C@@H](NC(=S)Nc3ccc(-n4cccn4)cc3)CC2)nc2ccccc12` [compound 397]: the class is reported as 3 (Class 3: The value of percent of control at 10^−7 M was more than 60% or the value of IC50 was more than 200 nM.). As to `CC(C)NC(=O)NC[C@H]1CC[C@@H](Nc2nc(N(C)C)c3ccccc3n2)CC1` [compound 443], the class is 3 (Class 3: The value of percent of control at 10^−7 M was more than 60% or the value of IC50 was more than 200 nM.). `Cc1ccc(NC(=O)NC[C@H]2CC[C@@H](Nc3nc(N(C)C)c4ccccc4n3)CC2)cc1[N+](=O)[O-]` [compound 558, N-[(cis-4-{[4-(dimethylamino)quinazolin-2-yl]amino}cyclohexyl)methyl]-N′-(4-methyl-3-nitrophenyl)urea]: the class is reported as 2 (Class 2: The value of percent of control at 10^−7 M was from 40% to 60% or the value of IC50 was from 50 nM to 200 nM.).

Turning to `CN(C)c1nc(N[C@H]2CC[C@@H](CNC(=S)Nc3cc(F)ccc3F)CC2)nc2ccccc12` [compound 591], the class was 3 (Class 3: The value of percent of control at 10^−7 M was more than 60% or the value of IC50 was more than 200 nM.).

Regarding `COc1cc(NC(=S)NC[C@H]2CC[C@@H](Nc3nc(N(C)C)c4ccccc4n3)CC2)cc(OC)c1OC` [compound 619], the class was 3 (Class 3: The value of percent of control at 10^−7 M was more than 60% or the value of IC50 was more than 200 nM.). As for `CCOC(=O)c1cccc(NC(=S)N[C@H]2CC[C@@H](Nc3nc(N(C)C)c4ccccc4n3)CC2)c1` [compound 306], the class is reported as 1 (Class 1: The value of percent of control at 10^−7 M was less than 40% or the value of IC50 was less than 50 nM.). Consider `CN(C)c1nc(N[C@H]2CC[C@@H](NC(=S)Nc3cc(Br)ccc3Br)CC2)nc2ccccc12` [compound 295], for which the class is listed as 3 (Class 3: The value of percent of control at 10^−7 M was more than 60% or the value of IC50 was more than 200 nM.). As for `CN(C)c1nc(N[C@H]2CC[C@@H](CNC(=S)NCCc3ccc(Cl)cc3)CC2)nc2ccccc12` [compound 666], the class is recorded as 3 (Class 3: The value of percent of control at 10^−7 M was more than 60% or the value of IC50 was more than 200 nM.).

`CCNC(=O)NC[C@H]1CC[C@@H](Nc2nc(N(C)C)c3ccccc3n2)CC1` [compound 433]: the class was 3 (Class 3: The value of percent of control at 10^−7 M was more than 60% or the value of IC50 was more than 200 nM.).

The experiment is the same for the next values; noted with them: class by percent of control at 10^-7 M or by IC50; read-out: class.
On to `CN(C)c1nc(N[C@H]2CC[C@@H](CNC(=S)Nc3ccc(/N=N/c4ccccc4)cc3)CC2)nc2ccccc12` [compound 812], for which the pIC50 was less than 6.70. On to `CCc1cccc(C(C)C)c1NC(=O)N[C@H]1CC[C@@H](Nc2nc(N(C)C)c3ccccc3n2)CC1` [compound 94, N-(cis-4-{[4-(dimethylamino)quinazolin-2-yl]amino}cyclohexyl)-N′-(2-ethyl-6-isopropylphenyl)urea], for which the pIC50 is greater than 7.30. The same measure, in the same setting: the figure for `CC(NC(=O)NC1CCC(Nc2nc(N(C)C)c3ccccc3n2)CC1)c1ccccc1` (stereo not shown) [compound 66, 1-[4-(4-Dimethylamino-quinazolin-2-ylamino)-cyclohexyl]-3-(1-phenyl-ethyl)-urea] is greater than 7.30; for `Cc1cccc(NC(=O)N[C@H]2CC[C@@H](Nc3nc(N(C)C)c4ccccc4n3)CC2)c1` [compound 59, N-(cis-4-{[4-(dimethylamino)quinazolin-2-yl]amino}cyclohexyl)-N′-(3-methylphenyl)urea] it is 6.70 to 7.30; for `CN(C)c1nc(N[C@H]2CC[C@@H](NC(=O)Nc3ccc(F)c(Cl)c3)CC2)nc2ccccc12` [compound 130] it is 6.70 to 7.30. Regarding `CN(C)c1nc(N[C@H]2CC[C@@H](NC(=O)Nc3cc(C(F)(F)F)ccc3F)CC2)nc2ccccc12` [compound 97, N-(cis-4-{[4-(dimethylamino)quinazolin-2-yl]amino}cyclohexyl)-N′-[2-fluro-5-(trifluoromethyl)phenyl]urea], the pIC50 is less than 6.70.

Still in this experiment, the particulars now being: class by percent of control at 10^−7 M or by IC50; read-out: class.
In the case of `CN(C)c1nc(N[C@H]2CC[C@@H](C(=O)Nc3cccnc3Cl)CC2)nc2ccccc12` [Example 1197, cis-N-(2-chloropyridin-3-yl)-4-{[4-(dimethylamino)quinazolin-2-yl]amino}cyclohexanecarboxamide], the pIC50 is less than 6.70. Consider `CN(C)c1nc(N[C@H]2CC[C@@H](C(=O)NCc3ccc(C(F)(F)F)cc3F)CC2)nc2ccccc12` [Example 1175, cis-4-{[4-(dimethylamino)quinazolin-2-yl]amino}-N-[2-fluoro-4-(trifluoromethyl)benzyl]cyclohexanecarboxamide], for which the pIC50 was greater than 7.30.

Take `CN(C)c1nc(N[C@H]2CC[C@@H](NC(=O)c3cccc(C(F)(F)F)c3)CC2)nc2cc(F)c(F)cc12` [Example 1210, N-(cis-4-{[4-(dimethylamino)-6,7-difluoroquinazolin-2-yl]amino}cyclohexyl)-3-(trifluoromethyl)benzamide]: the pIC50 was greater than 7.30. The same measure, in the same setting: the figure for `CN(C)c1nc(N[C@H]2CC[C@@H](NC(=O)c3ccc(F)c(F)c3)CC2)nc2cc(F)c(F)cc12` [Example 1209, N-(cis-4-{[4-(dimethylamino)-6,7-difluoroquinazolin-2-yl]amino}cyclohexyl)-3,4-difluorobenzamide] is greater than 7.30. As to `CN(C)c1nc(N[C@H]2CC[C@@H](C(=O)NCc3ccc(Cl)nc3)CC2)nc2ccccc12` [Example 1136, cis-N-[(6-chloropyridin-3-yl)methyl]-4-{[4-(dimethylamino)quinazolin-2-yl]amino}cyclohexanecarboxamide], the pIC50 is greater than 7.30.
